# Reference: PubChem BioAssay (NCI)
#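 Compound exposure: 48 hours, 5 concentrations, 96-well plates. Definition used: TGI = concentration required for complete inhibition of growth.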
# Experiments:
# Assay in all cases: NCI anticancer screen, dose series, 48 h
# [1] = test system: 786-0 renal
# [2] = test system: A498 renal
# [3] = test system: A549 NSCLC
# [4] = test system: ACHN renal
# [5] = test system: BT-549 breast
# [6] = test system: CCRF-CEM leukemia
# [7] = test system: COLO 205 colon
# [8] = test system: DU-145 prostate
# [9] = test system: EKVX NSCLC
# [10] = test system: HCC-2998 colon
# [11] = test system: HCT-116 colon
# [12] = test system: HCT-15 colon
# [13] = test system: HOP-62 NSCLC
# [14] = test system: HOP-92 NSCLC
# [15] = test system: HS 578T breast
# [16] = test system: HT29 colon
# [17] = test system: IGROV1 ovarian
# [18] = test system: K-562 leukemia
# [19] = test system: KM12 colon
# [20] = test system: LOX IMVI melanoma
# [21] = test system: M14 melanoma
# [22] = test system: MALME-3M melanoma
# [23] = test system: MCF7 breast
# [24] = test system: MDA-MB-231 breast
# [25] = test system: MDA-MB-435
# [26] = test system: MDA-N
# [27] = test system: MOLT-4 leukemia
# [28] = test system: NCI-H226 lung
# [29] = test system: NCI-H23 lung
# [30] = test system: NCI-H460 lung
# [31] = test system: NCI-H522 lung
# [32] = test system: NCI/ADR-RES ovarian
# [33] = test system: OVCAR-3 ovarian
# [34] = test system: OVCAR-4 ovarian
# [35] = test system: OVCAR-5 ovarian
# [36] = test system: OVCAR-8 ovarian
# [37] = test system: PC-3 prostate
# [38] = test system: RPMI-8226 leukemia
# [39] = test system: RXF 393 renal
# [40] = test system: SF-268 CNS
# [41] = test system: SF-295 CNS
# [42] = test system: SF-539 CNS
# [43] = test system: SK-MEL-28 melanoma
# [44] = test system: SK-MEL-5 melanoma
# [45] = test system: SK-OV-3 ovarian
# [46] = test system: SN12C renal
# [47] = test system: SNB-19 CNS
# [48] = test system: SNB-75 CNS
# [49] = test system: SR leukemia
# [50] = test system: SW-620 colon
# [51] = test system: T-47D breast
# [52] = test system: TK-10 renal
# [53] = test system: U251 CNS
# [54] = test system: UACC-257 melanoma
# [55] = test system: UACC-62 melanoma
# [56] = test system: UO-31 renal
# [57] = test system: CAKI-1 renal
# [58] = test system: SK-MEL-2 melanoma
smiles,measurement,setting,value
CC(C)c1nc(Cl)nc(Cl)c1Cl,TGI,[1],2.26 µM
same,TGI,[2],9.37 µM
same,TGI,[3],18.6 µM
same,TGI,[4],1.85 µM
same,TGI,[5],0.0335 µM
same,TGI,[6],0.0358 µM
same,TGI,[7],13.9 µM
same,TGI,[8],10.5 µM
same,TGI,[9],6.62 µM
same,TGI,[10],13.1 µM
same,TGI,[11],1.41 µM
same,TGI,[12],15.7 µM
same,TGI,[13],4.04 µM
same,TGI,[14],0.381 µM
same,TGI,[15],2.91 µM
same,TGI,[16],2.52 µM
same,TGI,[17],0.423 µM
same,TGI,[18],0.0708 µM
same,TGI,[19],3.9 µM
same,TGI,[20],0.198 µM
same,TGI,[21],1.83 µM
same,TGI,[22],12.9 µM
same,TGI,[23],6.11 µM
same,TGI,[24],5.64 µM
same,TGI,[25],2.69 µM
same,TGI,[26],4.9 µM
same,TGI,[27],0.176 µM
same,TGI,[28],5.58 µM
same,TGI,[29],3.05 µM
same,TGI,[30],16.6 µM
same,TGI,[31],1.54 µM
same,TGI,[32],> 56.4 µM
same,TGI,[33],1.74 µM
same,TGI,[34],0.751 µM
same,TGI,[35],3.93 µM
same,TGI,[36],2.45 µM
same,TGI,[37],4.19 µM
same,TGI,[38],> 100 µM
same,TGI,[39],1.47 µM
same,TGI,[40],9.12 µM
same,TGI,[41],8.91 µM
same,TGI,[42],1.82 µM
same,TGI,[43],2.72 µM
same,TGI,[44],6.7 µM
same,TGI,[45],17.6 µM
same,TGI,[46],2.83 µM
same,TGI,[47],3.06 µM
same,TGI,[48],22.7 µM
same,TGI,[49],0.0209 µM
same,TGI,[50],0.858 µM
same,TGI,[51],13.6 µM
same,TGI,[52],4.28 µM
same,TGI,[53],2.43 µM
same,TGI,[54],1.91 µM
same,TGI,[55],2.25 µM
same,TGI,[56],0.166 µM
CN(C)CCn1c(=O)nc2c3c(c([N+](=O)[O-])ccc31)Nc1ccc(O)cc1-2,TGI,[1],6.52 µM
same,TGI,[2],23.4 µM
same,TGI,[3],27.8 µM
same,TGI,[4],17.4 µM
same,TGI,[5],37 µM
same,TGI,[57],> 45.7 µM
same,TGI,[7],14.5 µM
same,TGI,[8],> 47.5 µM
same,TGI,[9],> 63.6 µM
same,TGI,[10],13.1 µM
same,TGI,[11],8.37 µM
same,TGI,[12],> 100 µM
same,TGI,[13],16.6 µM
same,TGI,[14],16.2 µM
same,TGI,[15],22.4 µM
same,TGI,[16],15.3 µM
same,TGI,[17],12.3 µM
same,TGI,[18],> 25.7 µM
same,TGI,[19],> 27.5 µM
same,TGI,[20],3.15 µM
same,TGI,[21],> 49.3 µM
same,TGI,[22],18 µM
same,TGI,[23],5.68 µM
same,TGI,[24],10.2 µM
same,TGI,[25],46.6 µM
same,TGI,[26],23.7 µM
same,TGI,[27],3.6 µM
same,TGI,[28],20.8 µM
same,TGI,[29],33.4 µM
same,TGI,[30],15.6 µM
same,TGI,[31],6.13 µM
same,TGI,[32],> 100 µM
same,TGI,[33],15.3 µM
same,TGI,[34],> 42.7 µM
same,TGI,[35],> 81.2 µM
same,TGI,[36],11.4 µM
same,TGI,[37],> 46.9 µM
same,TGI,[38],26.6 µM
same,TGI,[39],10.5 µM
same,TGI,[40],17.1 µM
same,TGI,[41],24.8 µM
same,TGI,[42],8.36 µM
same,TGI,[58],33.6 µM
same,TGI,[43],32.7 µM
same,TGI,[44],20.1 µM
same,TGI,[45],35.1 µM
same,TGI,[46],17.1 µM
same,TGI,[47],16.8 µM
same,TGI,[48],21.2 µM
same,TGI,[49],8.92 µM
same,TGI,[50],> 42.6 µM
same,TGI,[51],6.48 µM
same,TGI,[52],36 µM
same,TGI,[53],6.26 µM
same,TGI,[54],> 54.9 µM
same,TGI,[55],23.2 µM
same,TGI,[56],28.7 µM
